According to publication PMC10603899, “Reproducibility and Robustness of a Liver Microphysiological System PhysioMimix LC12 under Varying Culture Conditions and Cell Type Combinations” (Bioengineering, 2023):
Where a name gives a salt, the structure may show the parent alone. Read-outs that look alike come from different tables or passages of the source.

Legend:
PHH (TF-HU8373) + THP-1 [1] = test: Midazolam metabolism (1′-OH MDZ formation) in 96-well plate, PHH + THP-1; format: in vitro ADME, human; conditions: PHH + THP-1, day 2, incubation 24 h
PHH (TF-HU8373) [2] = test: Midazolam metabolism (1′-OH MDZ formation) in 96-well plate, PHH; format: in vitro ADME, human; conditions: day 2, incubation 24 h
Method: For the PHH 2D model, 96-well plates were first coated with 200 μg/mL collagen I (CB354249, Corning Inc.) and 50 μg/mL fibronectin (F1141, Sigma-Aldrich, St. Louis, MO, USA) and incubated at 37 °C, 5% CO2 for 1 h. Thawed PHHs were collected by centrifugation (100× g, 10 min), resuspended in plating media, and seeded at a density of 50,000–60,000 cells/well. After incubation overnight, the media were changed to maintenance media. The total well volume was 100 μL, and plates were incubated at 37 °C, 5% CO2, with media refreshed every 1–2 days.
After drug addition, media were collected every 2, 6, and 24 h. After 24 h, the drug treatment media were replaced with fresh maintenance media. For the experiment with pesticide mixtures, we selected chemicals from the Agency for Toxic Substances and Disease Registry Substance Priority List, which contains compounds that are commonly detected at Superfund sites and are known to be hazardous to human health. A molar-equivalent mixture was created by combining all 20 pesticides and diluting them to a final concentration of 1 or 5 μM each in dimethyl sulfoxide (DMSO, final concentration 0.5% v/v). Media was collected 48 h after treatment for the analyses detailed below. […]

PHH (various donors) [3] = system: PHH (various donors); design: method as in PMID 27338863; conditions: Suspension, day 0 of culture, incubation 0.17 h; cited from earlier work
PHH (various donors) [4] = system: PHH (various donors); design: method as in PMID 25068923; conditions: LiverChip, day 4 of culture, estimated from figures, cited from earlier work
PHH (TF-HU8373) + THP-1 [5] = test: Midazolam metabolism (1′-OH MDZ formation) in PhysioMimix LC-12, PHH + THP-1 co-culture; format: in vitro ADME, human; conditions: 5 µM MDZ
Method: Metabolic capacity was assessed across the various cell type conditions, including both types of hepatocytes. Midazolam (MDZ) was tested as a representative substrate for CYP3A4 [43]. Cells were treated with MDZ for up to 24 h on different days of culture, with sampling at 2, 6, and 24 h after treatment. The collected media was processed using high-performance liquid chromatography tandem mass spectrometry (HPLC-MS/MS) to determine the concentration of both the remaining parent compound (MDZ) and metabolites formed (1′-OH MDZ and 1′-OH MDZ glucuronide). We also tested the metabolism of equimolar mixtures (1 or 5 µM) of 20 pesticides that were previously used to evaluate the metabolic competence of different in vitro liver models. Cells were treated on day 6 of culture, and media were collected for analysis 48 h thereafter. Samples were analyzed using either gas chromatography (GC)-MS/MS or HPLC-MS/MS to determine whether parent molecule concentrations diminished, consistent with the metabolic activity of the cells.
The day when PHHs were seeded into PhysioMimix LC12 plates was defined as day 0 (Figure 1). PHHs were cultured in the PhysioMimix LC12 following the manufacturer’s protocols. PHHs were thawed into CHRM (CM7000, Thermo Fisher), centrifuged at 100× g for 10 min, resuspended in plating media, and then seeded into the PhysioMimix LC12 scaffold at a seeding density of 475,000–600,000 cells/chip. The flow was initiated at 1 µL/s.
For co-culture conditions, THP-1 monocytes and HMEC-1 endothelial cells were seeded either on day 0 or 1 at a seeding density of 60,000–160,000 cells/chip or 60,000 cells/chip, respectively. Primary KCs, HSCs, and LSECs were seeded either on day 0 or 1 at a seeding density of 100,000 cells/chip, 35,000 cells/chip, and 70,000–140,000 cells/chip, respectively. Cell seeding ratios were determined based on previous experiments or reports of the physiological cell ratios in the human liver. Media were collected and exchanged every 1–3 days by aspirating and replacing media from the media reservoir (1.8 mL/chip).
(§1) For evaluation of MDZ metabolism, cells were exposed on days 4–16 of culture to 5 µM MDZ (dissolved in methanol for the final concentration of 0.16% v/v). After drug addition, media were collected every 2, 6, and 24 h. After 24 h, the drug treatment media were replaced with fresh maintenance media. For the experiment with pesticide mixtures, we selected chemicals from the Agency for Toxic Substances and Disease Registry Substance Priority List, which contains compounds that are commonly detected at Superfund sites and are known to be hazardous to human health. A molar-equivalent mixture was created by combining all 20 pesticides and diluting them to a final concentration of 1 or 5 μM each in dimethyl sulfoxide (DMSO, final concentration 0.5% v/v). Media was collected 48 h after treatment for the analyses detailed below. For evaluation of immune-mediated toxicity with Trovafloxacin and LPS treatment, PHHs + THP-1 monocytes or PHHs + KCs were exposed on day 6 of culture to 25 or 100 µM of Trovafloxacin, with or without LPS. After 48 h, the drug treatment media were collected for biochemical assays detailed below.
After treatment with MDZ or pesticide mixtures (Supplemental Table S3), 50 µL media samples were mixed with 100 µL of 0.1 or 1 µM internal standard (Caffeine-13C3, C-082, Millipore Sigma; Supplemental Table S3) solution in acetonitrile on ice, respectively. Samples were vortexed and centrifuged (12,000× g, 10 min, room temperature) to allow for protein precipitation. The supernatant was collected from each sample, dried under vacuum, and reconstituted in 50 µL aqueous mobile phase. The reconstituted samples were transferred to glass autosampler vials with 200 µL inserts and stored at −20 °C prior to HPLC-MS/MS analysis. […]

PHH (TF-HU8373) [6] = test: Midazolam metabolism (1′-OH MDZ formation) in PhysioMimix LC-12, PHH monoculture; conditions: 5 µM MDZ; for 1′-OH MDZ Formed, Mean ± S.D. / 1′-OH MDZ Formed, Median: PhysioMimix LC-12, PHH
[7] = system: PHHs (donor HU8373) + Kupffer cells; test: Immune-mediated toxicity, trovafloxacin ± LPS in PhysioMimix LC12, PHH + Kupffer cells; format: cell-based; conditions: 48 h
Method: as §1
(§2) Cell culture media was collected every time media was exchanged (Figure 1) and stored frozen at −80 °C until analyses for various biomarkers, including albumin, urea, lactate dehydrogenase (LDH), and human interleukin-6 (IL-6). The ELISA assays for albumin (E88-129, Bethyl Laboratories, Montgomery, TX, USA), urea (EIABUN, ThermoFisher), LDH (ab102526, Abcam, Cambridge, UK), and IL-6 (D6050, R&D Systems) were conducted using manufacturer’s instructions. For CYP3A4 activity, the P450 Glo 3A4 with Luciferin-IPA assay (V9001, Promega, Madison, WI, USA) was used; this is a live cell assay, and it was conducted according to the manufacturer’s instructions as follows. The Luciferin-IPA substrate was diluted 1:1000 in maintenance media and added to chips or wells 1 h prior to reading luminescence using a plate reader (SpectraMax iD3, Molecular Devices, San Jose, CA, USA). After the assay, the media was replaced.
(§3) The last series of experiments was conducted to examine whether a co-culture of PHHs and NPCs in the PhysioMimix LC12 could model immune-mediated effects. […] We examined two conditions of use: HU8373 PHH with either THP-1 cells or Kupffer cells (Figure 8). Treatments (25 or 100 μM trovafloxacin) were added on […] with or without LPS (1 μg/mL) (Figure 1H) to replicate a well-established model of immune-mediated hepatotoxicity. We examined LDH leakage as a marker of cytotoxicity, CYP3A4 activity, and IL-6 secretion into the media as a marker of pro-inflammatory response. […] Few effects on CYP3A4 were observed, albeit inter-experimental variability was high (Figure 8B).
Figure 8 Immune-mediated toxicity in the PhysioMimix LC12. […]

[8] = system: PHHs (donor HU8373) + THP-1 cells; test: Immune-mediated toxicity, trovafloxacin ± LPS in PhysioMimix LC12, PHH + THP-1; format: cell-based; conditions: 48 h
Method: as §1, §2, §3
Figure 8 Immune-mediated toxicity in the PhysioMimix LC12. Changes in LDH, CYP3A4, and IL-6 after 48 h trovafloxacin exposure with and without LPS in the PhysioMimix LC12 seeded with PHHs (donor HU8373) and non-parenchymal cells (THP-1 cells or Kupffer cells). (A) LDH leakage, (B) CYP3A4 activity, and (C) IL-6 release. Endpoints were normalized to the mean of the pretreatment samples (day 6 of the experiment). Data are plotted as box (interquartile range) and whiskers (min-max) with all individual values shown (n = 2–12). […] Brackets indicate statistical significance between groups at p < 0.05 by two-way ANOVA with Tukey’s multiple comparisons test.

[9] = PhysioMimix LC-12, PHH + THP-1, day 6, incubation 2 h
[10] = PhysioMimix LC-12, PHH + THP-1, day 6, incubation 24 h
[11] = PhysioMimix LC-12, PHH + THP-1, day 12, incubation 24 h
[12] = 25 and 100 μM trovafloxacin + LPS (1 μg/mL)
[13] = 25 or 100 μM trovafloxacin with or without LPS (1 μg/mL)

OCc1ncc2n1-c1ccc(Cl)cc1C(c1ccccc1F)=NC2 [1′-OH-midazolam, 1-hydroxymidazolam]
1′-OH MDZ Formed, Mean ± S.D. (PHH (TF-HU8373) + THP-1 [1]): 0.088 ± 0.077 pmol/min/1 M Hep.
1′-OH MDZ Formed, Median (PHH (TF-HU8373) + THP-1 [1]): 0.061 pmol/min/1 M Hep.
1′-OH MDZ Formed, Mean ± S.D. (PHH (TF-HU8373) [2]): 0.163 ± 0.064 pmol/min/1 M Hep.
1′-OH MDZ Formed, Median (PHH (TF-HU8373) [2]): 0.189 pmol/min/1 M Hep.
1′-OH MDZ Formed, Mean ± S.D. (PHH (various donors) [3]): 100 ± 106 pmol/min/1 M Hep.
1′-OH MDZ Formed, Median (PHH (various donors) [3]): 63.7 pmol/min/1 M Hep.
1′-OH MDZ Formed, Mean ± S.D. (PHH (various donors) [4]; incubation 2 h): 4.55 ± 2.27 pmol/min/1 M Hep.
1′-OH MDZ Formed, Mean ± S.D. (PHH (various donors) [4]; incubation 24 h): 0.216 ± 0.054 pmol/min/1 M Hep.
1′-OH MDZ Formed, Mean ± S.D. (PHH (TF-HU8373) + THP-1 [5]; [9]): 2.54 ± 1.64 pmol/min/1 M Hep.
1′-OH MDZ Formed, Median (PHH (TF-HU8373) + THP-1 [5]; [9]): 2.11 pmol/min/1 M Hep.
1′-OH MDZ Formed, Mean ± S.D. (PHH (TF-HU8373) + THP-1 [5]; [10]): 0.836 ± 0.556 pmol/min/1 M Hep.
1′-OH MDZ Formed, Median (PHH (TF-HU8373) + THP-1 [5]; [10]): 0.997 pmol/min/1 M Hep.
1′-OH MDZ Formed, Mean ± S.D. (PHH (TF-HU8373) + THP-1 [5]; [11]): 0.971 ± 0.910 pmol/min/1 M Hep.
1′-OH MDZ Formed, Median (PHH (TF-HU8373) + THP-1 [5]; [11]): 0.933 pmol/min/1 M Hep.
1′-OH MDZ Formed, Mean ± S.D. (PHH (TF-HU8373) [6]; day 6, incubation 2 h): 2.72 ± 1.75 pmol/min/1 M Hep.
1′-OH MDZ Formed, Median (PHH (TF-HU8373) [6]; day 6, incubation 2 h): 2.33 pmol/min/1 M Hep.
1′-OH MDZ Formed, Mean ± S.D. (PHH (TF-HU8373) [6]; day 6, incubation 24 h): 0.610 ± 0.403 pmol/min/1 M Hep.
1′-OH MDZ Formed, Median (PHH (TF-HU8373) [6]; day 6, incubation 24 h): 0.561 pmol/min/1 M Hep.
1′-OH MDZ Formed, Mean ± S.D. (PHH (TF-HU8373) [6]; day 12, incubation 24 h): 0.753 ± 0.612 pmol/min/1 M Hep.
1′-OH MDZ Formed, Median (PHH (TF-HU8373) [6]; day 12, incubation 24 h): 0.649 pmol/min/1 M Hep.

Cc1ncc2n1-c1ccc(Cl)cc1C(c1ccccc1F)=NC2 [midazolam, Midazolam]
Midazolam metabolism over time in culture (PHH (TF-HU8373) [6]; PhysioMimix LC12, HU8373 PHH, different cell combinations, 24 h): remained consistent over time

N[C@@H]1[C@H]2CN(c3nc4c(cc3F)c(=O)c(C(=O)O)cn4-c3ccc(F)cc3F)C[C@@H]12 [trovafloxacin, Trovafloxacin mesylate]
IL-6 secretion into the media ([7]; 100 μM trovafloxacin): Increases
Potentiating effect of LPS on trovafloxacin (IL-6 release) [7, 12]: significant potentiating effect
Effect on CYP3A4 activity [7, 13]: Few effects
IL-6 secretion into the media ([8]; 100 μM trovafloxacin): Increases
Potentiating effect of LPS on trovafloxacin (IL-6 release) [8, 12]: not THP-1 cells
Effect on CYP3A4 activity [8, 13]: Few effects
LDH leakage as compared to pre-treatment levels [8, 13]: Significant increases

Lipopolysaccharide [LPS]
IL-6 secretion into the media ([7]; LPS alone (1 μg/mL)): Increases
IL-6 secretion into the media ([8]; LPS alone (1 μg/mL)): Increases
